Results as given in PMC8802618 (ACS infectious diseases, 2021).
In brackets after ≈: the same amount, converted by molar mass. Where two headings read alike, the source gives them in different places.

How the values were obtained:
[1] = cited from earlier work
[2] = system: Chloroquine-Resistant (K1) strain of P. falciparum; type: cell-based; conditions: for IC50 K1: 72 h [3H]-hypoxanthine incorporation, mean of two biological replicates
[3] = cited from earlier work; remark: listed apart in the source
[4] = system: Chloroquine-Sensitive (NF54) strain of P. falciparum; type: cell-based; conditions: 72 h [3H]-hypoxanthine incorporation; mean of two biological replicates
[5] = system: Chloroquine-Sensitive (NF54) strain of P. falciparum; conditions: parent compound; cited from earlier work
[6] = system: P. falciparum parasites harboring mutations in the Kelch protein, K13; conditions: cited from earlier work
[7] = system: Chloroquine-Resistant (K1) strain of P. falciparum; conditions: parent compound; cited from earlier work
[8] = single oral dose as low as 20 mg/kg; cited from earlier work

C[C@H]1[C@@H](O)O[C@@H]2O[C@@]3(C)CC[C@H]4[C@H](C)CC[C@@H]1[C@@]24OO3 [dihydroartemisinin]
in vivo half-life [1]: ~ 2 h

[O-][N+]1(CCOc2ccc(C3CCC4(CC3)OOC3(O4)C4CC5CC(C4)CC3C5)cc2)CCOCC1 (stereo not shown) [compound 8]
IC50 K1 [2]: 1.4 ng/mL (≈ 2.88 nM) | in vitro activity against P. falciparum relative to parent 2 ([2]; K1 and NF54 strains, Table 1): comparable to 2 | relative area under the plasma concentration versus time curve (AUC) of metabolites ([3]; human, in vivo): comparatively lower AUC values | IC50 NF54 [4]: 2.3 ng/mL (≈ 4.74 nM)

c1cc([C@H]2CC[C@]3(CC2)OO[C@]2(O3)C3CC4CC(C3)CC2C4)ccc1OCCN1CCOCC1 [compound 2]
IC50 NF54 [5]: 1.9 ng/mL (≈ 4.05 nM) | safety ([3]; up to a dose of 1600 mg): good safety properties | activity against K13 mutant parasites [6]: active | IC50 K1 [7]: 1.6 ng/mL (≈ 3.41 nM) | cure rate [8]: 100%

CC(C)(N)CNC(=O)C[C@H]1CC[C@]2(CC1)OO[C@]1(O2)C2CC3CC(C2)CC1C3 [Arterolane]
in vivo half-life ([1]; in vivo): 2 to 4 h

[O-][N+]1(CCOc2ccc(C3CCC4(CC3)OOC3(O4)C4CC5CC3CC(O)(C5)C4)cc2)CCOCC1 (stereo not shown) [compound 11]
IC50 K1 [2]: >100/>100 ng/mL | IC50 NF54 [4]: >100/>100 ng/mL
